Tests used:
[1] = molecular target: T1, human full length PKCE enzyme (Homo sapiens, UniProt Q02156); assay: In vitro PKCE assay; format: biochemical; settings: 10 nM enzyme, 40 uM peptide substrate, 20 uM ATP, KinaseGlo Plus readout; read-out: PKCε IC50
T1 construct: human full length PKCE enzyme purchased from InVitrogen; purchased InVitrogen
T1 sequence (Q02156 1-737): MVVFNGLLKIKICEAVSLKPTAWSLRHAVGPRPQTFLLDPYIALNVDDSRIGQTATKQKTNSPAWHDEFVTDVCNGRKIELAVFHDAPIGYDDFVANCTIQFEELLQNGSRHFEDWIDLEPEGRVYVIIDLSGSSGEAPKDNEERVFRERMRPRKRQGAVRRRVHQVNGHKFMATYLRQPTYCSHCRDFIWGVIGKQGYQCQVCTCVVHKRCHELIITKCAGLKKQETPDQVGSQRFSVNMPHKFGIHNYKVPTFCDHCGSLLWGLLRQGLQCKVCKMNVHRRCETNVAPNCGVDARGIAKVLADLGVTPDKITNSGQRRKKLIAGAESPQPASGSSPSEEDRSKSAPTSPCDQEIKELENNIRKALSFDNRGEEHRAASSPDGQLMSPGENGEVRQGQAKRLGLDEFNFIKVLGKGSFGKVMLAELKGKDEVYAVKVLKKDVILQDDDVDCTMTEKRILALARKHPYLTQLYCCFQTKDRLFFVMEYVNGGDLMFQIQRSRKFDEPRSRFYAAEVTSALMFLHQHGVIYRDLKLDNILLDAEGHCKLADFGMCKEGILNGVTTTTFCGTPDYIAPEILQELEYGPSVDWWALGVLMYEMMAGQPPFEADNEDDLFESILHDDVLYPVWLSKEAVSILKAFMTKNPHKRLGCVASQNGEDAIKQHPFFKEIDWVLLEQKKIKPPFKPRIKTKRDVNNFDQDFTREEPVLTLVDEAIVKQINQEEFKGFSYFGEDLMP

Pim1 kinase = Pim1 kinase (Homo sapiens, UniProt P11309); assay: Pim1 ATP depletion assay; format: biochemical; settings: Pim1 ATP depletion assay; read-out: IC50 (μM) PIM1;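 further: Luciferase-luciferin luminescence readout of residual ATP after PIM1 transfers phosphate to a peptide substrate, 40 µM ATP added, reaction run to roughly half ATP consumption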
Pim1 kinase, sequence (P11309 whole entry): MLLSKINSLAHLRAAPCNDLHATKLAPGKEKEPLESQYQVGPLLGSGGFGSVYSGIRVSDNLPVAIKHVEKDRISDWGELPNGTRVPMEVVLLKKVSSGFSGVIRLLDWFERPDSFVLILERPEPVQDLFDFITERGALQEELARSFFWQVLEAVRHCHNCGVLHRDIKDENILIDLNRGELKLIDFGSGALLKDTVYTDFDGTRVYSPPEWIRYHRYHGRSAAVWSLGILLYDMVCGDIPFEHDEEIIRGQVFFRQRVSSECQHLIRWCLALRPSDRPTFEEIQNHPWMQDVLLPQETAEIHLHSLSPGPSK

Pim2 kinase = Pim2 kinase (Homo sapiens, UniProt Q9P1W9); assay: Pim2 ATP depletion assay; format: biochemical; settings: read-out: IC50 (μM) PIM2;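 further: Luciferase-based luminescent readout of ATP remaining after PIM2 phosphorylates a BAD peptide, final 5 nM enzyme, 4 µM ATP, 10 µM peptide, 2.5% DMSO, run to roughly half ATP consumption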
Pim2 kinase, sequence (Q9P1W9 whole entry): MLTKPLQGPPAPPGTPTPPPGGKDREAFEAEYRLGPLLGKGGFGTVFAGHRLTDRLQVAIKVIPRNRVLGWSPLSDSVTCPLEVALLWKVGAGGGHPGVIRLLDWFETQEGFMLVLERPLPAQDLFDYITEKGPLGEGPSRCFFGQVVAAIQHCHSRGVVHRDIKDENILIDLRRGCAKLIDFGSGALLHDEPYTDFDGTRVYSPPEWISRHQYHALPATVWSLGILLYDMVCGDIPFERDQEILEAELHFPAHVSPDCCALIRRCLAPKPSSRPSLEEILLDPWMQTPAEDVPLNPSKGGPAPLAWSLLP

KDR kinase = KDR kinase (Homo sapiens, UniProt P35968); assay: KDR AlphaScreen assay; settings: KDR IC50 (μM)
KDR kinase, sequence (P35968 20-1356): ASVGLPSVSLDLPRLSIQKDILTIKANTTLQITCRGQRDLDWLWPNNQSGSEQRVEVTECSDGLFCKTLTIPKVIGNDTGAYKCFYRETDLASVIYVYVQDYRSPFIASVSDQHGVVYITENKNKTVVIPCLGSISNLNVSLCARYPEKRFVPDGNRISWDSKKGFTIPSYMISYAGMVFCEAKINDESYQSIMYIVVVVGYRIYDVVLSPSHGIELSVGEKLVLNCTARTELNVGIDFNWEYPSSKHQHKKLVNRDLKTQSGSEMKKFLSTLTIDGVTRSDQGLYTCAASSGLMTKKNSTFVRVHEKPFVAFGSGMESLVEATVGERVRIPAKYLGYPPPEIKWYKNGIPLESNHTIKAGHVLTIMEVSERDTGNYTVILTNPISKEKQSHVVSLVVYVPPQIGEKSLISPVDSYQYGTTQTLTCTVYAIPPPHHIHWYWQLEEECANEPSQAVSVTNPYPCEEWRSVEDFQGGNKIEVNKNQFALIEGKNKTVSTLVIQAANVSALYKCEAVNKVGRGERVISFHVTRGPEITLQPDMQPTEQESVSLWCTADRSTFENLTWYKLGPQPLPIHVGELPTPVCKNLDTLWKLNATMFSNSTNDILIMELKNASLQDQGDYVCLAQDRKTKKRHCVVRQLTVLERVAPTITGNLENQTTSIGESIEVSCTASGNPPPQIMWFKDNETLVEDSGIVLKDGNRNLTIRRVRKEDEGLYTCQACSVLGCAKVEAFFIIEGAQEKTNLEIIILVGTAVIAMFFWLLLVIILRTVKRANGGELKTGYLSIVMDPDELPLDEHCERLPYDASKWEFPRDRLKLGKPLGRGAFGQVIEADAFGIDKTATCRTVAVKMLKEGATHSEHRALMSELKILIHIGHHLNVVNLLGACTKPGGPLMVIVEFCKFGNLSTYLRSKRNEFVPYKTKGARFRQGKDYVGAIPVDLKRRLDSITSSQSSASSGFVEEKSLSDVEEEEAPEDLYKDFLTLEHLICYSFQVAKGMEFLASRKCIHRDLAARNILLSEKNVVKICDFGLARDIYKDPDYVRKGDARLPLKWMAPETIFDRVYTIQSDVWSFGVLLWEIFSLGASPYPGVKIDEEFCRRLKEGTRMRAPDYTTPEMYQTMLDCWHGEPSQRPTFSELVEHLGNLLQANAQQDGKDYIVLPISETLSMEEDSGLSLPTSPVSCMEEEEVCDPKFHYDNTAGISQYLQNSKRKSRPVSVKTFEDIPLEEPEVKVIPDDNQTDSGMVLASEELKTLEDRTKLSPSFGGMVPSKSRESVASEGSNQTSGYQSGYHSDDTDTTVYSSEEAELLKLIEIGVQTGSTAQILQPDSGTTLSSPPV

Pim3 kinase = Pim3 kinase (Homo sapiens, UniProt Q86V86); assay: Pim3 ATP depletion assay; format: biochemical; settings: read-out: IC50 (μM) PIM3

IC50 [1]	IC50 (Pim1 kinase)	IC50 (Pim2 kinase)	IC50 (KDR kinase)	IC50 (Pim3 kinase)	Compound
< 1 µM	< 1 µM	< 1 µM	10 to 25 µM	< 1 µM	COc1ccc(N2CCCC(N)C2)c(NC(=O)c2nc(Br)cnc2N)c1 (stereo not drawn) [Example 212, 3-amino-N-[2-(3-aminopiperidin-1-yl)-5-methoxyphenyl]-6-bromopyrazine-2-carboxamide]
1 to 10 µM	1 to 10 µM	> 25 µM	> 25 µM	1 to 10 µM	Nc1nccnc1C(=O)Nc1cc(Cl)ccc1N1CCNCC1 [Example 213, 3-amino-N-(5-chloro-2-piperazin-1-ylphenyl)pyrazine-2-carboxamide]
1 to 10 µM	< 1 µM	1 to 10 µM	> 25 µM	< 1 µM	Nc1nccnc1C(=O)Nc1cc(Cl)ccc1N1CCCC(N)C1 (stereo not drawn) [Example 215, 3-amino-N-[2-(3-aminopiperidin-1-yl)-5-chlorophenyl]pyrazine-2-carboxamide]
1 to 10 µM	1 to 10 µM	> 25 µM	> 25 µM	1 to 10 µM	Cc1ccc(N2CCNCC2)c(NC(=O)c2nccnc2N)c1 [Example 216, 3-amino-N-(5-methyl-2-piperazin-1-ylphenyl)pyrazine-2-carboxamide]
1 to 10 µM	< 1 µM	10 to 25 µM	> 25 µM	< 1 µM	Cc1ccc(N2CCCC(N)C2)c(NC(=O)c2nccnc2N)c1 (stereo not drawn) [Example 218, 3-amino-N-[2-(3-aminopiperidin-1-yl)-5-methylphenyl]pyrazine-2-carboxamide]
1 to 10 µM	< 1 µM	10 to 25 µM	> 25 µM	< 1 µM	CC(=O)c1ccc(N2CCNCC2)c(NC(=O)c2nccnc2N)c1 [Example 219, N-(5-acetyl-2-piperazin-1-yl-phenyl)-3-aminopyrazine-2-carboxamide]
< 1 µM	< 1 µM	1 to 10 µM	> 25 µM	< 1 µM	COc1ccc(N2CCCC(N)C2)c(NC(=O)c2nccnc2N)c1 (stereo not drawn) [Example 223, 3-amino-N-[2-(3-aminopiperidin-1-yl)-5-methoxyphenyl]pyrazine-2-carboxamide]
1 to 10 µM	< 1 µM	> 25 µM	> 25 µM	1 to 10 µM	Nc1nccnc1C(=O)Nc1cc(C(F)(F)F)ccc1N1CCNCC1 [Example 224, 3-amino-N-[2-piperazin-1-yl-5-(trifluoromethyl)phenyl]pyrazine-2-carboxamide]
1 to 10 µM	< 1 µM	10 to 25 µM	> 25 µM	< 1 µM	Nc1nccnc1C(=O)Nc1cc(C(F)(F)F)ccc1N1CCC(N)CC1 [Example 225, 3-amino-N-[2-(4-aminopiperidin-1-yl)-5-(trifluoromethyl)phenyl]-pyrazine-2-carboxamide]
1 to 10 µM	< 1 µM	1 to 10 µM	> 25 µM	< 1 µM	Nc1nccnc1C(=O)Nc1cc(C(F)(F)F)ccc1N1CCCC(N)C1 (stereo not drawn) [Example 226, 3-amino-N-[2-(3-aminopiperidin-1-yl)-5-(trifluoromethyl)phenyl]-pyrazine-2-carboxamide]
1 to 10 µM	1 to 10 µM	> 25 µM	> 25 µM	1 to 10 µM	Cc1ccc(NC(=O)c2nccnc2N)c(N2CCNCC2)c1 [Example 227, 3-amino-N-(4-methyl-2-piperazin-1-ylphenyl)pyrazine-2-carboxamide]
1 to 10 µM	< 1 µM	1 to 10 µM	> 25 µM	< 1 µM	Cc1ccc(NC(=O)c2nccnc2N)c(N2CCCC(N)C2)c1 (stereo not drawn) [Example 229, 3-amino-N-[2-(3-aminopiperidin-1-yl)-4-methylphenyl]pyrazine-2-carboxamide]
< 1 µM	< 1 µM	< 1 µM	> 25 µM	< 1 µM	N#Cc1ccc(N2CCCC(N)C2)c(NC(=O)c2nccnc2N)c1 (stereo not drawn) [Example 230, 3-amino-N-[2-(3-aminopiperidin-1-yl)-5-cyanophenyl]pyrazine-2-carboxamide]
10 to 25 µM	1 to 10 µM	> 25 µM	10 to 25 µM	1 to 10 µM	Nc1nccnc1C(=O)Nc1cc(C(=O)c2ccccc2)ccc1N1CCCC(N)C1 (stereo not drawn) [Example 231, 3-amino-pyrazine-2-carboxylic acid [2-(3-amino-piperidin-1-yl)-5-benzoyl-phenyl]-amide]
10 to 25 µM	10 to 25 µM	> 25 µM	10 to 25 µM	10 to 25 µM	Nc1nccnc1C(=O)Nc1cc(C(=O)c2ccccc2)ccc1N1CCNCC1 [Example 232, 3-amino-pyrazine-2-carboxylic acid (5-benzoyl-2-piperazin-1-yl-phenyl)-amide]
1 to 10 µM	1 to 10 µM	> 25 µM	1 to 10 µM	1 to 10 µM	Nc1nccnc1C(=O)Nc1cc(C(=O)c2ccccc2)ccc1N1CCC(N)CC1 [Example 233, 3-amino-pyrazine-2-carboxylic acid [2-(4-amino-piperidin-1-yl)-5-benzoyl-phenyl]-amide]
> 25 µM	< 1 µM	< 1 µM	10 to 25 µM	< 1 µM	NCC1CCCN(c2cnc(=O)[nH]c2NC(=O)c2nc(Cl)c(N)nc2N)C1 (stereo not drawn) [Example 236, 3,5-diamino-N-{5-[3-(amino-methyl)piperidin-1-yl]-2-oxo-2,3-dihydropyrimidin-4-yl}-6-chloropyrazine-2-carboxamide]
1 to 10 µM	< 1 µM	< 1 µM	< 1 µM	< 1 µM	NCCC(=O)N1CCN(c2cnc(=O)[nH]c2NC(=O)c2nccnc2N)CC1 [Example 237, 3-amino-N-{5-[4-(3-amino-propanoyl)piperazin-1-yl]-2-oxo-2,3-dihydropyrimidin-4-yl}-pyrazine-2-carboxamide]
> 25 µM	< 1 µM	< 1 µM	< 1 µM	< 1 µM	NCCC(=O)N1CCN(c2cnc(=O)[nH]c2NC(=O)c2nc(Cl)c(N)nc2N)CC1 [Example 238, 3,5-diamino-6-chloro-pyrazine-2-carboxylic acid {5-[4-(3-amino-propionyl)-piperazin-1-yl]-2-oxo-2,3-dihydro-pyrimidin-4-yl}-amide]
1 to 10 µM	1 to 10 µM	10 to 25 µM	> 25 µM	1 to 10 µM	Nc1nccnc1C(=O)Nc1cc(C(=O)C2CC2)ccc1N1CCCC(N)C1 (stereo not drawn) [Example 243, 3-amino-pyrazine-2-carboxylic acid [2-(3-amino-piperidin-1-yl)-5-cyclopropanecarbonyl-phenyl]-amide]
1 to 10 µM	1 to 10 µM	10 to 25 µM	10 to 25 µM	1 to 10 µM	Nc1nccnc1C(=O)Nc1cc(C(=O)C2CC2)ccc1N1CCC(N)CC1 [Example 244, 3-amino-pyrazine-2-carboxylic acid [2-(4-amino-piperidin-1-yl)-5-cyclopropanecarbonyl-phenyl]-amide]
1 to 10 µM	< 1 µM	> 25 µM	< 1 µM	1 to 10 µM	CC(=O)NC1CCCN(c2ccncc2NC(=O)c2nc(Br)cnc2N)C1 (stereo not drawn) [Example 304, N-(4-(3-acetamidopiperidin-1-yl)pyridin-3-yl)-3-amino-6-bromopyrazine-2-carboxamide]
1 to 10 µM	1 to 10 µM	> 25 µM	< 1 µM	1 to 10 µM	COc1cncc(-c2cnc(N)c(C(=O)Nc3cnccc3N3CCNCC3)n2)n1 [Example 360, 5-amino-6′-methoxy-[2,2′]bipyrazinyl-6-carboxylic acid (4-piperazin-1-yl-pyridin-3-yl)-amide]
< 1 µM	< 1 µM	< 1 µM	< 1 µM	< 1 µM	NC(=O)c1cccc(-c2cnc(N)c(C(=O)Nc3cnccc3N3CCNCC3)n2)c1 [Example 361, 3-amino-6-(3-carbamoyl-phenyl)-pyrazine-2-carboxylic acid (4-piperazin-1-yl-pyridin-3-yl)-amide]
